ChEMBL document CHEMBL4118186 (Bioorg Med Chem Lett, 2018)

target: T1, Proteasome Macropain subunit MB1 (Homo sapiens, UniProt P28074); assay: Inhibition of chymotrypsin-like activity of human 20S proteasome using Suc-Leu-Leu-Val-Tyr-AMC as substrate after 1 hr by fluorescence analysis
T1 sequence (P28074 whole entry): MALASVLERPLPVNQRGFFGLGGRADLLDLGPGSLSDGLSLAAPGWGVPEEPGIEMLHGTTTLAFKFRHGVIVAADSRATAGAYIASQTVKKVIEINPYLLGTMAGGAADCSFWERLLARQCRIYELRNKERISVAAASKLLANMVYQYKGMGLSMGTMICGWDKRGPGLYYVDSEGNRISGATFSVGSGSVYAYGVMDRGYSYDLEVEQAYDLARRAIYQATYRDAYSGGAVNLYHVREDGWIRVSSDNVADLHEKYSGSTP

First: CC(C)C[C@H](NC(=O)[C@H](Cc1ccccc1)Oc1cnccn1)B(O)O
Second: CC(C)C[C@H](NC(=O)[C@H](Cc1ccccc1)OCc1cnccn1)B(O)O
The IC50 of the first is 2.9-fold higher: 155 nM for the first, 53 nM for the second. The second is the more potent here.

Compared with CC(C)C[C@H](NC(=O)[C@H](Cc1ccccc1)NCc1cccc2ccccc12)B(O)O, CC(C)C[C@H](NC(=O)[C@H](Cc1ccccc1)Nc1cccc2ccccc12)B(O)O is 1.8-fold higher in IC50: 92 nM for the first, 166 nM for the second.

Compared with CC(C)C[C@H](NC(=O)[C@H](Cc1ccccc1)OCc1cccc2ccccc12)B(O)O, CC(C)C[C@H](NC(=O)[C@H](Cc1ccccc1)Oc1cccc2ccccc12)B(O)O is 2.5-fold higher in IC50: 109 nM for the first, 275 nM for the second.

Compared with CC(C)C[C@H](NC(=O)[C@H](Cc1ccccc1)Oc1ccccc1)B(O)O, CC(C)C[C@H](NC(=O)[C@H](Cc1ccccc1)OCc1ccccc1)B(O)O is 3.5-fold lower in IC50: 126 nM for the first, 36 nM for the second. The second is the more potent here.

Compared with CC(C)C[C@H](NC(=O)[C@H](Cc1ccccc1)Nc1cnccn1)B(O)O, CC(C)C[C@H](NC(=O)[C@H](Cc1ccccc1)NCc1cnccn1)B(O)O is 3-fold lower in IC50: 192 nM for the first, 65 nM for the second.

Compared with CC(C)C[C@H](NC(=O)[C@H](Cc1ccccc1)Nc1ccccc1)B(O)O, CC(C)C[C@H](NC(=O)[C@H](Cc1ccccc1)NCc1ccccc1)B(O)O is 35-fold lower in IC50: 335 nM for the first, 9.7 nM for the second.

tested on: not listed separately; assay: Metabolic stability in BALB/c mouse liver microsomes at 1 uM preincubated for 5 mins followed by NADP+ addition measured up to 40 mins by LC/MS method; assay type: ADME, microsome

For CC(C)C[C@H](NC(=O)[C@H](Cc1ccccc1)NCc1ccccc1)B(O)O, the Stability was “Stable”.

tested on: not listed separately; assay: Metabolic stability in human liver microsomes at 1 uM preincubated for 5 mins followed by NADP+ addition measured up to 40 mins by LC/MS method; assay type: ADME, microsome

For CC(C)C[C@H](NC(=O)[C@H](Cc1ccccc1)NCc1ccccc1)B(O)O, the Stability was “Stable”.
